Data from patent publication US20100069384A1, “5-ALKYLOXY-INDOLIN-2-ONE DERIVATIVES, PREPARATION THEREOF AND APPLICATION THEREOF IN THERAPY” (SANOFI-AVENTIS, priority 2006, published 2010).

Tests used:
V1b receptors = target: T1, V1b receptors (Homo sapiens, UniProt P47901); test: affinity for V1b receptors (method of Sugimoto et al.); format: binding; conditions: for IC50 V1b/IC50 V2: selectivity ratio versus V2
T1 sequence (P47901 1-424): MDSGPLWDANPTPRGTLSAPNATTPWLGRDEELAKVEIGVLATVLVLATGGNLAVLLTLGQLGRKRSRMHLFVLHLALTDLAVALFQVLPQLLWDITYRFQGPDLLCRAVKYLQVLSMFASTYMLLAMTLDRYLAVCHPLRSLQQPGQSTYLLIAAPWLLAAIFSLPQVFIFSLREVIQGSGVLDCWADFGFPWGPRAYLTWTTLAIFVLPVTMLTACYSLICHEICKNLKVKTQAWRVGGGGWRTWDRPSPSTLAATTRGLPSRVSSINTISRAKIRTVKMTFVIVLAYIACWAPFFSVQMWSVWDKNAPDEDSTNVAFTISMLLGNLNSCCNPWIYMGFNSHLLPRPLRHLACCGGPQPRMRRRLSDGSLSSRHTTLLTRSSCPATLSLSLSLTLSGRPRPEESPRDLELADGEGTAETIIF
Description: (§1) The affinity of the compounds of the invention for the Via and V1b vasopressin receptors and the affinity of the compounds of the invention for the oxytocin (OXT) receptors were also tested.
(§2) The affinity of the compounds according to the invention for human Via receptors was determined according to the method described by M. Thibonnier et al. in J. Biol. Chem. 1994, 269, 3304-3310. The affinity of the compounds according to the invention for the V1b receptors was determined according to the method described by T. Sugimoto et al. in J. Biol. Chem. 1994, 269, 27088-27092.

[1] = target: T2, human recombinant V2 vasopressin receptors (Homo sapiens, UniProt P30518); test: in vitro binding test, displacement of [H3]-AVP from V2 vasopressin receptors; conditions: CHO membranes, 3.5 nM [H3]-AVP, 45 minutes at 25° C.
T2 construct: expressed in transfected cells; host or cells: CHO
T2 sequence (P30518 whole entry): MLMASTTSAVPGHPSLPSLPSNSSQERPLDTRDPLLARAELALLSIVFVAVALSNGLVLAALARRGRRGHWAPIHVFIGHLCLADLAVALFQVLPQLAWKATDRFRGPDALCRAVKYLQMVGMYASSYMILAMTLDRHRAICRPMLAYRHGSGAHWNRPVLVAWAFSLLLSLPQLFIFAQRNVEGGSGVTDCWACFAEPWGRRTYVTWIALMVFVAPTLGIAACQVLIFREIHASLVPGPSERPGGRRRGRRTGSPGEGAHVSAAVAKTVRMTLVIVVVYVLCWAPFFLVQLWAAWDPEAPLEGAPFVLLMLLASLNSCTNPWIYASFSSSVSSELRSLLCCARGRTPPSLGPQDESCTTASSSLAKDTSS
Description: The affinity of the compounds of the invention for the V2 vasopressin receptors was measured in in vitro binding tests, as described in J. Pharmacol. Exp. Ther., (2002), 300: pp. 1122-1130.
Plasma membranes (about 20 μg/ml) obtained from CHO tissue or cell line expressing human recombinant V2 vasopressin receptors, are incubated for 45 minutes at 25° C. in 200 μL of TRIS-HCl buffer (50 mM; pH 8.2) containing 2 mM of MgCl2, 1 mM of EDTA, 0.1% of BSA, 1/500 protease inhibitor cocktail (Sigma #P2714) and 3.5 nM of [H3]-AVP. The reaction is stopped by filtration and washing on GF/B filters. Nonspecific binding is determined in the presence of 1 μM of AVP. The compounds of the invention, dissolved beforehand to a concentration of 10^−2 M in DMSO, are tested in a dilution series.
For each concentration the results are expressed as percentage inhibition of specific binding. An IC50 (concentration of product inhibiting 50% of specific binding) is determined for each of the products using the in-house software Biost@t-SPEED v1.3 which employs the 4-parameter logistic model of Ratkovsky and Reedy (1986). Adjustment is obtained by nonlinear regression using Marquardt's algorithm of the SAS v8.2 software running under UNIX.

V1a receptors = V1a receptors (Homo sapiens, UniProt P37288); test: affinity for V1a receptors (method of Thibonnier et al.); format: binding; conditions: for IC50 V1a/IC50 V2: selectivity ratio versus V2
V1a receptors, sequence (P37288 whole entry): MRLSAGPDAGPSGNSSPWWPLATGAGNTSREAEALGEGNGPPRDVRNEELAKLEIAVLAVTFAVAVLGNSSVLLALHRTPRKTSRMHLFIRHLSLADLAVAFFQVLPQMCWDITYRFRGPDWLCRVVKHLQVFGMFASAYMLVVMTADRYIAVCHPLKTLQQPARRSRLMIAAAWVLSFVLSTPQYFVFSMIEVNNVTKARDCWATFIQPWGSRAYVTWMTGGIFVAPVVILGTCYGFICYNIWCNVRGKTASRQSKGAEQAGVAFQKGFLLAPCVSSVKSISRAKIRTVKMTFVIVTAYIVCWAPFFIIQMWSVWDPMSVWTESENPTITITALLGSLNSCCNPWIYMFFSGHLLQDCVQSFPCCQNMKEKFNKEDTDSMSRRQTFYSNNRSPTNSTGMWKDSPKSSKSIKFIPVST
Description: as §1, §2

human oxytocin receptors = target: T3, human oxytocin receptors (Homo sapiens, UniProt P30559); test: in vitro binding test, displacement of a radioiodated oxytocin analogue from oxytocin receptors; conditions: for IC50: membrane preparation of human oxytocin receptors; for IC50 OXT/IC50 V2: selectivity ratio versus V2
T3 sequence (P30559 1-389): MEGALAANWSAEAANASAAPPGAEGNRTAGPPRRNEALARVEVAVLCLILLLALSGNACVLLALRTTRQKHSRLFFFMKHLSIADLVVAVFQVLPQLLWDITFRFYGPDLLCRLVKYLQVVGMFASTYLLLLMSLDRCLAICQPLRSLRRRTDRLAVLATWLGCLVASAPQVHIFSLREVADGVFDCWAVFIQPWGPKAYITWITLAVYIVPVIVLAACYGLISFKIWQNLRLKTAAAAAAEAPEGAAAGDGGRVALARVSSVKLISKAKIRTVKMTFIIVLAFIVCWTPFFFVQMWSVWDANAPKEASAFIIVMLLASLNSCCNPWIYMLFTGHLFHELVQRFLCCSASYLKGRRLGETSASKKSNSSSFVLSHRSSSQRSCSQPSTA
Description: as §1
The affinity of the compounds according to the invention for the OXT receptors was determined in an in vitro binding test using the method described by J. Elands et al. in Eur. J. Pharmacol. 1987, 147, 197-207. This method comprises in vitro investigation of the displacement of a radioiodated analogue of oxytocin from the oxytocin receptors in a membrane preparation of human oxytocin receptors.

Structure (SMILES)	IC50 (V1b receptors) [nM]	IC50 V1b/IC50 V2 (V1b receptors)	IC50 [1] [nM]	melting point [°C]	IC50 (V1a receptors) [nM]	IC50 V1a/IC50 V2 (V1a receptors)	IC50 (human oxytocin receptors) [nM]	IC50 OXT/IC50 V2 (human oxytocin receptors)
CCOc1ccc2c(c1)C(C)(c1ccccc1Cl)C(=O)N2S(=O)(=O)c1ccc(C(=O)NC(C)(C)C)cc1 (single isomer, unassigned) [Example 12, N-tert-butyl-4-[3-(2-chlorophenyl)-5-ethoxy-3-methyl-2-oxo-2,3-dihydroindole-1-sulphonyl]benzamide]	> 1000	>100	1.9	153	450	>100	140	74
CCOc1ccc2c(c1)C(C)(c1cc(C(=O)N[C@@H]3CCNC3)ccc1Cl)C(=O)N2S(=O)(=O)c1ccc(C(=O)NC(C)(C)C)cc1OC (single isomer, unassigned) [Example 43]	> 1000	>100	1.3	216	730	>100	700	>100
CCOc1ccc2c(c1)C(C)(c1ccccc1)C(=O)N2S(=O)(=O)c1ccc(C(=O)NC(C)(C)C)cc1OC (single isomer, unassigned) [Example 99, N-tert-butyl-3-methoxy-4-[3-methyl-3-phenyl-5-ethoxy-2-oxo-2,3-dihydroindole-1-sulphonyl]benzamide]	> 1000	>100	1	148	260	>100	700	>100
CCNC(=O)c1ccc(Cl)c(C2(C)C(=O)N(S(=O)(=O)c3ccc(C(=O)NC(C)(C)C)cc3OC)c3ccc(OCC)cc32)c1 (stereo not shown) [Example 21, 4-chloro-3-[1-(4-tert-butylcarbamoyl-2-methoxybenzenesulphonyl)-5-ethoxy-3-methyl-2-oxo-2,3-dihydro-1H-indol-3-yl]-N-ethylbenzamide]	> 1000	>100	3	176	340	>100	> 1000	>100
CCOc1ccc2c(c1)C(C)(c1cc(C(=O)NCCN3CCOCC3)ccc1Cl)C(=O)N2S(=O)(=O)c1ccc(C(=O)NC(C)(C)C)cc1OC (stereo not shown) [Example 36, 4-chloro-3-[1-(4-tert-butylcarbamoyl-2-methoxybenzenesulphonyl)-5-ethoxy-3-methyl-2-oxo-2,3-dihydro-1H-indol-3-yl]-N-(2-morpholin-4-ylethyl)benzamide]	> 1000	>100	5.2	124	> 1000	>100	350	67
CCOc1ccc2c(c1)C(C)(c1cc(NC(=O)C3CCN(C)CC3)ccc1Cl)C(=O)N2S(=O)(=O)c1ccc(C(=O)NC(C)(C)C)cc1OC (stereo not shown) [Example 62, 1-methylpiperidine-4-carboxylic acid {3-[1-(4-tert-butylcarbamoyl-2-methoxy-benzenesulphonyl)-5-ethoxy-3-methyl-2-oxo-2,3-dihydro-1H-indol-3-yl]-4-chlorophenyl}-amide]	> 1000	>100	2.5	180	630	>100	> 1000	>100
CCOc1ccc2c(c1)C(C)(c1ccccc1Cl)C(=O)N2S(=O)(=O)c1ccc(C(=O)NC(C)(C)CO)cc1 (stereo not shown) [Example 72, 4-[3-(2-chlorophenyl)-5-ethoxy-3-methyl-2-oxo-2,3-dihydroindole-1-sulphonyl]-N-(2-hydroxy-1,1-dimethylethyl)benzamide]	940	>100	1.3	152	> 1000	>100	390	>100
COc1cc(C(=O)NC(C)(C)C)ccc1S(=O)(=O)N1C(=O)C(C)(c2ccccc2Cl)c2cc(O)ccc21 (stereo not shown) [Example 144]	> 1000	>100	2.6	166	310	>100	130	50
